Laboratory results from ChEMBL document CHEMBL1629662, “Antimicrobial activity of prulifloxacin tested against a worldwide collection of gastroenteritis-producing pathogens, including those causing traveler's diarrhea” (2009).
Values after ≈ are worked out from the molar mass of the structure shown.

How the values were obtained:
[1] = tested on: Campylobacter coli; experiment: Antibacterial activity against Campylobacter coli by broth microdilution method; assay type: functional
[2] = tested on: Vibrio alginolyticus; experiment: Antibacterial activity against Vibrio alginolyticus by broth microdilution method; assay type: functional
[3] = tested on: Salmonella typhi; experiment: Antibacterial activity against Salmonella enterica serovar Typhi by broth microdilution method; assay type: functional, Salmonella enterica subsp. enterica serovar Typhi
[4] = tested on: Yersinia enterocolitica; experiment: Antibacterial activity against Yersinia enterocolitica assessed as percent susceptible isolates by broth microdilution method; assay type: functional
[5] = tested on: Plesiomonas shigelloides; experiment: Antibacterial activity against Plesiomonas shigelloides assessed as percent susceptible isolates by broth microdilution method; assay type: functional
[6] = tested on: Campylobacter jejuni; experiment: Antibacterial activity against Campylobacter jejuni by broth microdilution method; assay type: functional
[7] = tested on: Aeromonas veronii; experiment: Antibacterial activity against Aeromonas veronii by broth microdilution method; assay type: functional
[8] = tested on: Vibrio fluvialis; experiment: Antibacterial activity against Vibrio fluvialis by broth microdilution method; assay type: functional
[9] = tested on: Yersinia enterocolitica; experiment: Antibacterial activity against Yersinia enterocolitica assessed as percent resistant isolates by broth microdilution method; assay type: functional
[10] = tested on: Shigella sonnei; experiment: Antibacterial activity against Shigella sonnei by broth microdilution method; assay type: functional
[11] = tested on: Salmonella enteritidis; experiment: Antibacterial activity against Salmonella enterica serovar Enteritidis assessed as percent susceptible isolates by broth microdilution method; assay type: functional, Salmonella enterica subsp. enterica serovar Enteritidis; details: pooled result: one value given for 5 cell lines, strains, targets or settings
[12] = tested on: Aeromonas sobria; experiment: Antibacterial activity against Aeromonas sobria assessed as percent resistant isolates by broth microdilution method; assay type: functional
[13] = tested on: Aeromonas hydrophila; experiment: Antibacterial activity against Aeromonas hydrophila by broth microdilution method; assay type: functional
[14] = tested on: Aeromonas caviae; experiment: Antibacterial activity against Aeromonas caviae by broth microdilution method; assay type: functional
[15] = tested on: Vibrio vulnificus; experiment: Antibacterial activity against Vibrio vulnificus assessed as percent susceptible isolates by broth microdilution method; assay type: functional
[16] = tested on: Aeromonas caviae; experiment: Antibacterial activity against Aeromonas caviae assessed as percent susceptible isolates by broth microdilution method; assay type: functional
[17] = tested on: Vibrio alginolyticus; experiment: Antibacterial activity against Vibrio alginolyticus assessed as percent resistant isolates by broth microdilution method; assay type: functional
[18] = tested on: Vibrio cholerae; experiment: Antibacterial activity against Vibrio cholerae assessed as percent susceptible isolates by broth microdilution method; assay type: functional
[19] = tested on: Vibrio cholerae; experiment: Antibacterial activity against Vibrio cholerae by broth microdilution method; assay type: functional
[20] = tested on: Shigella sonnei; experiment: Antibacterial activity against Shigella sonnei assessed as percent resistant isolates by broth microdilution method; assay type: functional; details: pooled result: one value given for 4 cell lines, strains, targets or settings
[21] = tested on: Escherichia coli; experiment: Antibacterial activity against Escherichia coli assessed as percent susceptible isolates by broth microdilution method; assay type: functional
[22] = tested on: Shigella dysenteriae; experiment: Antibacterial activity against Shigella dysenteriae by broth microdilution method; assay type: functional
[23] = tested on: Vibrio vulnificus; experiment: Antibacterial activity against Vibrio vulnificus assessed as percent resistant isolates by broth microdilution method; assay type: functional
[24] = tested on: Shigella boydii; experiment: Antibacterial activity against Shigella boydii assessed as percent susceptible isolates by broth microdilution method; assay type: functional; details: pooled result: one value given for 3 cell lines, strains, targets or settings
[25] = tested on: Aeromonas hydrophila; experiment: Antibacterial activity against Aeromonas hydrophila assessed as percent resistant isolates by broth microdilution method; assay type: functional
[26] = tested on: Yersinia pseudotuberculosis; experiment: Antibacterial activity against Yersinia pseudotuberculosis by broth microdilution method; assay type: functional
[27] = tested on: Vibrio parahaemolyticus; experiment: Antibacterial activity against Vibrio parahaemolyticus assessed as percent resistant isolates by broth microdilution method; assay type: functional
[28] = tested on: Escherichia coli; experiment: Antibacterial activity against Escherichia coli by broth microdilution method; assay type: functional
[29] = tested on: Vibrio cholerae; experiment: Antibacterial activity against Vibrio cholerae assessed as percent resistant isolates by broth microdilution method; assay type: functional
[30] = tested on: Aeromonas caviae; experiment: Antibacterial activity against Aeromonas caviae assessed as percent resistant isolates by broth microdilution method; assay type: functional
[31] = tested on: Vibrio alginolyticus; experiment: Antibacterial activity against Vibrio alginolyticus assessed as percent susceptible isolates by broth microdilution method; assay type: functional
[32] = tested on: Yersinia enterocolitica; experiment: Antibacterial activity against Yersinia enterocolitica by broth microdilution method; assay type: functional
[33] = tested on: Vibrio fluvialis; experiment: Antibacterial activity against Vibrio fluvialis assessed as percent resistant isolates by broth microdilution method; assay type: functional
[34] = tested on: Vibrio sp.; experiment: Antibacterial activity against Vibrio sp. assessed as percent susceptible isolates by broth microdilution method; assay type: functional
[35] = tested on: Vibrio sp.; experiment: Antibacterial activity against Vibrio sp. assessed as percent resistant isolates by broth microdilution method; assay type: functional
[36] = Antibacterial activity against Salmonella enterica serovar Newport by broth microdilution method; assay type: functional, Salmonella enterica subsp. enterica serovar Newport
[37] = tested on: Plesiomonas shigelloides; experiment: Antibacterial activity against Plesiomonas shigelloides assessed as percent resistant isolates by broth microdilution method; assay type: functional
[38] = tested on: Shigella flexneri; experiment: Antibacterial activity against Shigella flexneri by broth microdilution method; assay type: functional
[39] = tested on: Aeromonas veronii; experiment: Antibacterial activity against Aeromonas veronii assessed as percent resistant isolates by broth microdilution method; assay type: functional
[40] = tested on: Vibrio fluvialis; experiment: Antibacterial activity against Vibrio fluvialis assessed as percent susceptible isolates by broth microdilution method; assay type: functional
[41] = tested on: Vibrio parahaemolyticus; experiment: Antibacterial activity against Vibrio parahaemolyticus assessed as percent susceptible isolates by broth microdilution method; assay type: functional
[42] = tested on: Salmonella typhimurium; experiment: Antibacterial activity against Salmonella enterica serovar Typhimurium assessed as percent resistant isolates by broth microdilution method; assay type: functional, Salmonella enterica subsp. enterica serovar Typhimurium; details: pooled result: one value given for 8 cell lines, strains, targets or settings
[43] = tested on: Escherichia coli; experiment: Antibacterial activity against Escherichia coli assessed as percent resistant isolates by broth microdilution method; assay type: functional
[44] = tested on: Salmonella enteritidis; experiment: Antibacterial activity against Salmonella enterica serovar Enteritidis by broth microdilution method; assay type: functional, Salmonella enterica subsp. enterica serovar Enteritidis
[45] = tested on: Aeromonas veronii; experiment: Antibacterial activity against Aeromonas veronii assessed as percent susceptible isolates by broth microdilution method; assay type: functional
[46] = Antibacterial activity against Salmonella enterica serovar Virchow by broth microdilution method; assay type: functional, Salmonella enterica subsp. enterica serovar Virchow
[47] = tested on: Vibrio vulnificus; experiment: Antibacterial activity against Vibrio vulnificus by broth microdilution method; assay type: functional
[48] = tested on: Vibrio sp.; experiment: Antibacterial activity against Vibrio sp. by broth microdilution method; assay type: functional
[49] = tested on: Plesiomonas shigelloides; experiment: Antibacterial activity against Plesiomonas shigelloides by broth microdilution method; assay type: functional
[50] = tested on: Yersinia pseudotuberculosis; experiment: Antibacterial activity against Yersinia pseudotuberculosis assessed as percent susceptible isolates by broth microdilution method; assay type: functional
[51] = tested on: Aeromonas sobria; experiment: Antibacterial activity against Aeromonas sobria assessed as percent susceptible isolates by broth microdilution method; assay type: functional
[52] = tested on: Salmonella typhimurium; experiment: Antibacterial activity against Salmonella enterica serovar Typhimurium by broth microdilution method; assay type: functional, Salmonella enterica subsp. enterica serovar Typhimurium
[53] = tested on: Vibrio parahaemolyticus; experiment: Antibacterial activity against Vibrio parahaemolyticus by broth microdilution method; assay type: functional
[54] = tested on: Shigella boydii; experiment: Antibacterial activity against Shigella boydii by broth microdilution method; assay type: functional
[55] = tested on: Salmonella paratyphi; experiment: Antibacterial activity against Salmonella enterica serovar Paratyphi by broth microdilution method; assay type: functional, Salmonella enterica subsp. enterica serovar Paratyphi A
[56] = tested on: Aeromonas hydrophila; experiment: Antibacterial activity against Aeromonas hydrophila assessed as percent susceptible isolates by broth microdilution method; assay type: functional
[57] = Antibacterial activity against Salmonella enterica serovar Heidelberg by broth microdilution method; assay type: functional, Salmonella enterica subsp. enterica serovar Heidelberg
[58] = tested on: Aeromonas sobria; experiment: Antibacterial activity against Aeromonas sobria by broth microdilution method; assay type: functional

SMILES: CC1(C)S[C@@H]2[C@H](NC(=O)[C@H](N)c3ccccc3)C(=O)N2[C@H]1C(=O)O [AMPICILLIN]
- MIC50 [1]: 2 µg/mL (≈ 5.72 µM)
- MIC90 [1]: 32 µg/mL (≈ 91.6 µM)
- MIC50 [2]: 2 µg/mL (≈ 5.72 µM)
- MIC90 [2]: 8 µg/mL (≈ 22.9 µM)
- MIC90 [3]: > 256 µg/mL
- Activity [4]: 6.5%
- Activity [5]: 0%
- MIC50 [6]: 2 µg/mL (≈ 5.72 µM)
- MIC90 [6]: 32 µg/mL (≈ 91.6 µM)
- MIC50 [7]: > 256 µg/mL
- MIC90 [7]: > 256 µg/mL
- MIC50 [8]: 2 µg/mL (≈ 5.72 µM)
- MIC90 [8]: 8 µg/mL (≈ 22.9 µM)
- Activity [9]: 91.3%
- MIC50 [10]: 128 µg/mL (≈ 366 µM)
- MIC90 [10]: > 256 µg/mL
- Activity [11]: 77.2%
- Activity [12]: 98%
- MIC50 [13]: > 256 µg/mL
- MIC90 [13]: > 256 µg/mL
- MIC50 [14]: > 256 µg/mL
- MIC90 [14]: > 256 µg/mL
- Activity [15]: 90%
- Activity [16]: 1%
- Activity [17]: 0%
- Activity [18]: 90%
- MIC50 [19]: 2 µg/mL (≈ 5.72 µM)
- MIC90 [19]: 8 µg/mL (≈ 22.9 µM)
- Activity [20]: 59.4%
- Activity [21]: 63%
- MIC50 [22]: 128 µg/mL (≈ 366 µM)
- MIC90 [22]: > 256 µg/mL
- Activity [23]: 0%
- Activity [24]: 40.6%
- Activity [25]: 98%
- MIC50 [26]: 32 µg/mL (≈ 91.6 µM)
- MIC90 [26]: 32 µg/mL (≈ 91.6 µM)
- Activity [27]: 0%
- MIC50 [28]: 2 µg/mL (≈ 5.72 µM)
- MIC90 [28]: > 256 µg/mL
- Activity [29]: 0%
- Activity [30]: 98%
- Activity [31]: 90%
- MIC50 [32]: 32 µg/mL (≈ 91.6 µM)
- MIC90 [32]: 32 µg/mL (≈ 91.6 µM)
- Activity [33]: 0%
- Activity [34]: 90%
- Activity [35]: 0%
- MIC90 [36]: > 256 µg/mL
- Activity [37]: 100%
- MIC50 [38]: 128 µg/mL (≈ 366 µM)
- MIC90 [38]: > 256 µg/mL
- Activity [39]: 98%
- Activity [40]: 90%
- Activity [41]: 90%
- Activity [42]: 22.8%
- Activity [43]: 37%
- MIC50 [44]: 1 µg/mL (≈ 2.86 µM)
- MIC90 [44]: > 256 µg/mL
- Activity [45]: 1%
- MIC90 [46]: > 256 µg/mL
- MIC50 [47]: 2 µg/mL (≈ 5.72 µM)
- MIC90 [47]: 8 µg/mL (≈ 22.9 µM)
- MIC50 [48]: 2 µg/mL (≈ 5.72 µM)
- MIC90 [48]: 8 µg/mL (≈ 22.9 µM)
- MIC [49]: 64 µg/mL (≈ 183 µM)
- MIC50 [49]: 64 µg/mL (≈ 183 µM)
- Activity [50]: 6.5%
- Activity [51]: 1%
- MIC50 [52]: 1 µg/mL (≈ 2.86 µM)
- MIC90 [52]: > 256 µg/mL
- MIC50 [53]: 2 µg/mL (≈ 5.72 µM)
- MIC90 [53]: 8 µg/mL (≈ 22.9 µM)
- MIC50 [54]: 128 µg/mL (≈ 366 µM)
- MIC90 [54]: > 256 µg/mL
- MIC90 [55]: > 256 µg/mL
- Activity [56]: 1%
- MIC90 [57]: > 256 µg/mL
- MIC50 [58]: > 256 µg/mL
- MIC90 [58]: > 256 µg/mL
